In patent US8029980B2, “Identification and use of agents that modulate oncogenic transcription agent activity” (The Board of Trustees of the University of Illinois, priority 2006, dated 2011):

Columns and labels:
FoxM1 [1] = molecular target: T1, FoxM1 (Homo sapiens, UniProt Q08050); test: FoxM1-responsive firefly luciferase reporter assay in C3-Luc cells; assay type: cell-based; details: C3-Luc cells
T1 construct: expressed in transfected cells; host or cells: U2OS clone C3 / C3-Luc
T1 sequence (Q08050 1-748 isoform Q08050-2): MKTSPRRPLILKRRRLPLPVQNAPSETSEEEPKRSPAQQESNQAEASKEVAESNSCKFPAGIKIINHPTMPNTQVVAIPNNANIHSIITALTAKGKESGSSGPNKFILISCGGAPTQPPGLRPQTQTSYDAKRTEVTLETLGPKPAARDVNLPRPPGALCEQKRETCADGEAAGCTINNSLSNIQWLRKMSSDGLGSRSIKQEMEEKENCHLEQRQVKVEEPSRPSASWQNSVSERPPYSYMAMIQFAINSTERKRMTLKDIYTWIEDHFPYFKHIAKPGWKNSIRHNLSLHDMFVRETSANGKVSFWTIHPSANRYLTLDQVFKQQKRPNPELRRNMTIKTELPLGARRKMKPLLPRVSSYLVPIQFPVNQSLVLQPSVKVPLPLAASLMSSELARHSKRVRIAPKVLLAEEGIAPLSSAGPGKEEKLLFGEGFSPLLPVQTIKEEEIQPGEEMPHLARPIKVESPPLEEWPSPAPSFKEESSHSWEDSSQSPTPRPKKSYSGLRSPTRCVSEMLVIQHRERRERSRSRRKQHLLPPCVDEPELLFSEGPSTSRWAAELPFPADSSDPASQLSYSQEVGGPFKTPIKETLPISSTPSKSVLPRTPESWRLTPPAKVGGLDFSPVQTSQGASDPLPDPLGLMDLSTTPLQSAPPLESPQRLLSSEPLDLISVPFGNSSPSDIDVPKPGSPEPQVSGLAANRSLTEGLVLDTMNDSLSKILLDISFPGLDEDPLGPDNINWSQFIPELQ
Procedure: (§1) FIG. 6. Thiostrepton and Siomycin A both inhibit FoxM1 transcriptional activity. […] The next day, the luciferase activity was measured with the Dual-Luciferase reporter assay system (E1910; Promega) according to the manufacturer's instructions.
(§2) The development of U2OS clone C3 cell line with doxycyclin inducible FoxM1-GFP fusion protein has been described before (17). This cell line was transfected with a plasmid expressing firefly luciferase under the control of 6× FoxM1 responsive (FoxRE) promoter (17), along with pcDNA3.1 (Invitrogen, Carlsbad, Calif.) plasmid that expresses neomycin phospho-transferase. […] This clone was further transfected with pRL-CMV (Promega) that expresses renilla luciferase along with pLPCX-puro (Clontech), and the cells were selected in 2 μg/ml puromycin. This cell line which expresses FoxM1-dependent firefly luciferase and constitutive renilla luciferase was named as C3-Luc and used for the screening of compound libraries (Challenge set and Diversity set) from the National Cancer Institute.
(§3) For high-throughput screening, the C3-Luc cells were grown in 96-well plates and treated overnight with a combination of 1 μg/ml doxycycline and 10 μM of compounds from the library. Next day, the firefly and renilla luciferase activities were measured with the Dual Glo system (E2940; Promega).
(§4) For the other luciferase assay experiments, the cells were treated as indicated in the FIG. 1 legend and the luciferase activity was measured using the Dual Luciferase reporter assay system (E1910; Promega) according to the manufacturer's instructions.

FoxM1 [2] = test: as above; assay type: cell-based, human; details: C3-Luc cells without doxycycline induction, increasing concentration
Procedure: as §1, §2, §3, §4

[3] = tested on: SV40-transformed MRC-5 human fetal lung fibroblasts; test: Apoptosis assay (DAPI staining, caspase-3 and survivin immunoblot) in transformed fibroblasts; assay type: cell-based; details: SV40-transformed cells
Procedure: FIG. 4. Anti-cancer properties of Siomycin A. (A) Representative photographs from soft agar experiment as described in Example 1 are shown. (B) Number of colonies in the soft agar were quantitated and plotted in the form of bar graphs. (C) Wild type and SV40-transformed MRC-5 human fetal lung fibroblasts were treated with indicated concentrations of Siomycin A for 48 hrs. Photographs from phase contrast microscopy (top panel) and fluorescent microscopy after DAPI staining (bottom panel) are shown. (D) Apoptotic nuclei from normal and SV40-transformed MRC-5 fibroblasts treated with indicated concentrations of Siomycin A for 24 hrs were scored after DAPI staining and percentage cell death (mean±sd; n=3) is shown. (E) Wild type and SV40-transformed MRC-5 fibroblasts were treated with Siomycin A as indicated for 48 hrs and the cell lysates were used for immunoblotting and probed for levels of survivin and cleaved caspase-3.
(§5) Immunoblotting was performed as described (18-20) with antibodies specific for p21 (556431; BD Pharmingen), survivin (sc-10811; Santa Cruz), cleaved caspase-3 (9664; Cell Signaling), and β-actin (A5441; Sigma) antibodies. Immunoblot for FoxM1 was done using the previously generated rabbit antisera (2), and phospho-FoxM1 was detected using the MPM2 monoclonal antibody (Upstate Biotechnology) which recognizes the phosphorylated protein sequence phosphoserine/phosphothreonine-proline.
Apoptosis was detected by DAPI (4′,6-diamidino-2-phenylindole) staining. All treatments were done in triplicates in 6-well plates and cells were stained with DAPI and visualized by fluorescent microscopy. Four random fields for each sample were photographed and at least 500 cells per field were counted to estimate apoptosis. The data is represented as mean±sd.

[4] = tested on: Leukemia cell lines CEM, HL60 and U937; test: FoxM1 and cleaved caspase-3 immunoblot in leukemia cell lines; assay type: cell-based, human; details: 5 μM, 48 hrs
Procedure: FIG. 10. […] Leukemia cell lines CEM, HL60 and U937 were treated with 5 μM Siomycin A and thiostrepton, respectively, for 48 hrs and the cell lysates were analyzed for the levels of FoxM1 and cleaved caspase-3 by immunoblotting.
as §5
Next we treated leukemia cell lines with mutant p53 CEM, HL60 and U937 with 5 μM of these compounds for 48 hrs and the cell lysates were analyzed for the levels of FoxM1 and cleaved caspase-3 by immunoblotting.

293 and Hela cells = test: Sensitization to TNF-alpha-induced apoptosis (cleaved caspase-3 immunoblot); assay type: cell-based, human; details: 1 μM Siomycin A and 10 ng/ml TNF-alpha, 24 hours
Procedure: FIG. 14. […] 293 (A) and Hela (B) cells were pretreated with the indicated concentrations of Sulfazalazine (control) for overnight. The following day the cells were treated with 1 μM Siomycin A and 10 ng/ml TNF-alpha as indicated. Twenty-four hours later the cells were harvested and the total cell lysates were used to determine the level of cleaved caspase-3. β-actin was used as the loading control.

C=C(NC(=O)C(=C)NC(=O)c1csc(C2=N[C@@H]3c4csc(n4)[C@H]4NC(=O)c5csc(n5)[C@H]([C@](C)(O)[C@@H](C)O)NC(=O)[C@H]5CSC(=N5)/C(=C/C)NC(=O)[C@H]([C@@H](C)O)NC(=O)c5csc(n5)[C@]3(CC2)NC(=O)[C@H](C)NC(=O)C(=C)NC(=O)C(=C)NC(=O)[C@H](C(C)C)N[C@@H]2C=Cc3c([C@H](C)O)cc(nc3[C@H]2O)C(=O)O[C@@H]4C)n1)C(N)=O [Siomycin A]
relative firefly luciferase activity (FoxM1 transcriptional activity) (FoxM1 [1]; 1 μg/mL doxycycline (60-fold induction), 5 μM compound, 24 hrs): efficiently reduced the value to basal levels
relative firefly luciferase activity (exogenous FoxM1 transcriptional activity) (FoxM1 [1]; 1 μg/ml doxycycline induction (~16-fold), 10 μM compound, overnight): efficiently reduced the value to basal levels
firefly luciferase activity conferred by the FoxM1-responsive promoter (endogenous FoxM1) (FoxM1 [2]): dose-dependent decrease
cleavage of caspase-3 ([3]; 48 hrs, immunoblot): showed cleavage of caspase-3
survivin levels ([3]; 48 hrs, immunoblot): effectively repress survivin levels
apoptosis / cell death ([3]; forty-eight hours after treatment): dose dependent apoptosis
FoxM1 expression [4]: inhibit FoxM1 expression
apoptosis (cleaved caspase-3) [4]: induce apoptosis
sensitization to TNF-alpha-induced apoptosis (293 and Hela cells): sensitize human cancer cells to TNF-alpha-induced apoptosis
